The subject of experiment [1] is PC3. Put plainly: Cytotoxicity propidium iodide assay, PC3. It is filed as cell-based, human. The note with it: for inhibition at 1 µM / inhibition at 10 µM / IC50: Homo sapiens, PC-3; for inhibition at 1 µM: read-out: % Inhibition at 1 μM, C2a; for inhibition at 10 µM: PC3, 10 μM (stated in cell), read-out: % Inhibition at 10 μM, C2a; for IC50: PC3 (prostate), 48 hours treatment, read-out: IC50 Values in μM, C2a. On the procedure: (§1) The assay was designed as in the reference, Anticancer Drugs, 2002, 13, 1-8, the disclosure of which is incorporated herein by reference for the teaching of the assay.
(§2) Cells from cell lines (ATCC) as mentioned in the table given below were seeded at a density of 3000 cells/well in a white opaque 96-well plate. Following incubation at 37° C./5% CO2 for a period of 18-24 hours, the cells were treated with various concentrations (stock solution was prepared in DMSO and subsequent dilutions were made in media as per ATCC guidelines) of the compounds of the present invention for a period of 48 hours. At the end of treatment, the culture medium was discarded, the cells were washed with 1×PBS and 200 μL of […] propidium iodide was added to each well. The plates were frozen at […] overnight. For analysis, the plates were warmed to RT, allowed to thaw and were read in PoleStar fluorimeter with the fluorescence setting. The percentage of viable cells in the non-treated set of wells was considered to be 100 and the percentage viability following treatment was calculated accordingly. IC50 values were calculated from graphs plotted using these percentages. IC50 values for certain compounds of present invention are depicted in Table 1 and % Inhibition of certain compounds of present invention are depicted in Table 2.

In experiment [2] the test system is A2780. Nature of the experiment: Cytotoxicity propidium iodide assay, A2780. It counts as cell-based. The note with it: for inhibition at 1 µM / inhibition at 10 µM / IC50: Homo sapiens; for inhibition at 1 µM: read-out: % Inhibition at 1 μM, C1a; for inhibition at 10 µM: A2780, 10 μM (stated in cell), read-out: % Inhibition at 10 μM, C1a; for IC50: A2780 (ovarian), 48 hours treatment, read-out: IC50 Values in μM, C1a. On the procedure:
as §1, §2

Results on 21 compounds are retold here after patent US20130310374A1, “Substituted Imidazoquinoline Derivatives” (PIRAMAL ENTERPRISES LIMITED`, priority 2010, published 2013).

One may read the inhibition as the drop in the measured response relative to a control, in per cent. Take `Cn1c(=O)n(-c2ccc(C(C)(C)C#N)nc2)c2c3cc(-c4cncc5ccccc45)ccc3ncc21` [Example 6, 2-(5-(8-(Isoquinolin-4-yl)-3-methyl-2-oxo-2,3-dihydro-1H-imidazo[4,5-c]quinolin-1-yl)pyridin-2-yl)-2-methylpropanenitrile]: the inhibition at 1 µM was 69.5% in experiment [1] (PC3, 1 μM, 48 hours) and 85.3% in experiment [2] (A2780, 1 μM, 48 hours).

Consider `Cn1c(=O)n(-c2ccc(C#N)nc2)c2c3cc(-c4cccnc4F)ccc3ncc21` [Example 46, 5-(8-(2-Fluoropyridin-3-yl)-3-methyl-2-oxo-2,3-dihydro-1H-imidazo[4,5-c]quinolin-1-yl)picolinonitrile], for which the inhibition at 1 µM came to 27% in experiment [1] (PC3, 1 μM, 48 hours) and 34% in experiment [2] (A2780, 1 μM, 48 hours).

For `Cn1c(=O)n(-c2ccc(C(F)(F)F)nc2)c2c3cc(-c4ccc(C(F)(F)F)nc4)ccc3ncc21` [Example 56, 3-Methyl-1,8-bis(6-(trifluoromethyl)pyridin-3-yl)-1H-imidazo [4,5-c]quinolin-2(3H)-one], the inhibition at 1 µM is 32% in experiment [1] (PC3, 1 μM, 48 hours) and 57% in experiment [2] (A2780, 1 μM, 48 hours).

Take `COc1ccc(-c2ccc3ncc4c(c3c2)n(-c2ccc(C#N)nc2)c(=O)n4C)cn1` [Example 48, 5-(8-(6-Methoxypyridin-3-yl)-3-methyl-2-oxo-2,3-dihydro-1H-imidazo[4,5-c]quinolin-1-yl)picolinonitrile]: the inhibition at 10 µM in experiment [1] (48 hours) and in experiment [2] (48 hours) was 40 to 60% in each case.

As a reminder, the IC50 is the concentration needed to halve the response being measured. With `COc1ccc(-n2c(=O)n(C)c3cnc4ccc(-c5cnc(N)c(C(F)(F)F)c5)cc4c32)c(C)n1` [Example 38, 8-(6-Amino-5-(trifluoromethyl)pyridin-3-yl)-1-(6-methoxy-2-methylpyridin-3-yl)-3-methyl-1H-imidazo[4,5-c]quinolin-2(3H)-one], the IC50 was 0.0078 µM in experiment [1] and under 0.005 µM in experiment [2].

For the compound `CC(C)(C#N)c1ccc(-n2c(=O)n(CC#N)c3cnc4ccc(-c5cccnc5)cc4c32)cn1` [Example 14, 2-(5-(3-(Cyanomethyl)-2-oxo-8-(pyridin-3-yl)-2,3-dihydro-1H-imidazo[4,5-c]quinolin-1-yl)pyridin-2-yl)-2-methylpropanenitrile], the IC50 was determined as 0.42 µM in experiment [1] and 0.4 µM in experiment [2].

With `Cn1c(=O)n(-c2ccc(C#N)nc2)c2c3cc(-c4cnc(N)c(C(F)(F)F)c4)ccc3ncc21` [Example 45, 5-(8-(6-Amino-5-(trifluoromethyl)pyridin-3-yl)-3-methyl-2-oxo-2,3-dihydro-1H-imidazo[4,5-c]quinolin-1-yl)picolinonitrile], the inhibition at 1 µM was found to be 37% in experiment [1] (PC3, 1 μM, 48 hours) and 52% in experiment [2] (A2780, 1 μM, 48 hours).

`Cn1c(=O)n(CCN2CCOCC2)c2c3cc(-c4cnc(N)c(C(F)(F)F)c4)ccc3ncc21` [Example 69, 8-(6-Amino-5-(trifluoromethyl)pyridin-3-yl)-3-methyl-1-(2-morpholinoethyl)-1H-imidazo[4,5-c]quinolin-2(3H)-one]: the half-maximal inhibitory concentration (IC50) in experiment [1] stood at 0.07 µM; in experiment [2], 0.022 µM.

As for `Cn1c(=O)n(-c2ccc(Cl)nc2)c2c3cc(-c4cccnc4)ccc3ncc21` [Example 60, 1-(6-Chloropyridin-3-yl)-3-methyl-8-(pyridin-3-yl)-1H-imidazo[4,5-c]quinolin-2(3H)-one], the IC50 is 0.85 µM in experiment [1] and 0.68 µM in experiment [2].

Turning to `COc1ccc(-n2c(=O)n(CC#N)c3cnc4ccc(-c5cccnc5)cc4c32)cn1` [Example 21, 2-(1-(6-Methoxypyridin-3-yl)-2-oxo-8-(pyridin-3-yl)-1H-imidazo[4,5-c]quinolin-3(2H)-yl)acetonitrile], the inhibition at 1 µM in experiment [1] (PC3, 1 μM, 48 hours) is 27%; in experiment [2] (A2780, 1 μM, 48 hours), 38%.

In general, % Inhibition refers to the drop in the measured response relative to a control, in per cent. As for “6-Chloro-5-(3-methyl-2-oxo-8-(quinolin-3-yl)-2,3-dihydro-1H-imidazo[4,5-c]quinolin-1-yl)picolinonitrile [Example 58]”, the “% Inhibition at 1 μM, C2a” value in experiment [1] (PC3, 1 μM, 48 hours) came to 60%. Besides, the “% Inhibition at 1 μM, C1a” value in experiment [2] (A2780, 1 μM, 48 hours) is on record as 91%.

As to `COc1ccc(-n2c(=O)n(CC#N)c3cnc4ccc(-c5cnc6ccccc6c5)cc4c32)cn1` [Example 24, 2-(1-(6-Methoxypyridin-3-yl)-2-oxo-8-(quinolin-3-yl)-1H-imidazo[4,5-c]quinolin-3(2H)-yl)acetonitrile], the inhibition at 1 µM in experiment [1] (PC3, 1 μM, 48 hours) stood at 39%; in experiment [2] (A2780, 1 μM, 48 hours), 66%.

Consider `COc1ccc(-n2c(=O)n(C)c3cnc4ccc(-c5cnc6ccccc6c5)cc4c32)c(C)n1` [Example 41, 1-(6-Methoxy-2-methylpyridin-3-yl)-3-methyl-8-(quinolin-3-yl)-1H-imidazo[4,5-c]quinolin-2(3H)-one], for which the inhibition at 1 µM in experiment [1] (PC3, 1 μM, 48 hours) was found to be 68%; in experiment [2] (A2780, 1 μM, 48 hours), 80%.

Consider `COc1ccc(-n2c(=O)n(CC#N)c3cnc4ccc(-c5ccc(C(F)(F)F)nc5)cc4c32)c(C)n1` [Example 37, 2-(1-(6-Methoxy-2-methylpyridin-3-yl)-2-oxo-8-(6-(trifluoromethyl)pyridin-3-yl)-1H-imidazo[4,5-c]quinolin-3(2H)-yl)acetonitrile], for which the inhibition at 1 µM was 49.5% in experiment [1] (PC3, 1 μM, 48 hours) and 70% in experiment [2] (A2780, 1 μM, 48 hours).

Take `Cn1c(=O)n(-c2ccc(C#N)nc2)c2c3cc(-c4ccc(F)nc4)ccc3ncc21` [Example 47, 5-(8-(6-Fluoropyridin-3-yl)-3-methyl-2-oxo-2,3-dihydro-1H-imidazo[4,5-c]quinolin-1-yl)picolinonitrile]: the inhibition at 10 µM in experiment [1] (48 hours) and in experiment [2] (48 hours) was 40 to 60% in each case.

Regarding `N#CCn1c(=O)n(-c2ccc(C#N)nc2)c2c3cc(-c4cccnc4)ccc3ncc21` [Example 42, 5-(3-(Cyanomethyl)-2-oxo-8-(pyridin-3-yl)-2,3-dihydro-1H-imidazo[4,5-c]quinolin-1-yl)picolinonitrile], the inhibition at 1 µM in experiment [1] (PC3, 1 μM, 48 hours) was 60 to 80%; in experiment [2] (A2780, 1 μM, 48 hours) it was 60 to 80%.

`N#CCn1c(=O)n(-c2ccc(C#N)nc2)c2c3cc(-c4cnc5ccccc5c4)ccc3ncc21` [Example 51, 5-(3-(Cyanomethyl)-2-oxo-8-(quinolin-3-yl)-2,3-dihydro-1H-imidazo[4,5-c]quinolin-1-yl)picolinonitrile]: the inhibition at 1 µM in experiment [1] (PC3, 1 μM, 48 hours) is 41%; in experiment [2] (A2780, 1 μM, 48 hours) it was 73%.

For `COc1ccc(-n2c(=O)n(C)c3cnc4ccc(-c5cncc(C(F)(F)F)c5)cc4c32)cn1` [Example 22, 1-(6-Methoxypyridin-3-yl)-3-methyl-8-(5-(trifluoromethyl)pyridin-3-yl)-1H-imidazo[4,5-c] quinolin-2(3H)-one], the inhibition at 1 µM came out at 67.8% in experiment [1] (PC3, 1 μM, 48 hours) and 83.1% in experiment [2] (A2780, 1 μM, 48 hours).

Consider `COc1ccc(-n2c(=O)n(C)c3cnc4ccc(-c5cncc(C(F)(F)F)c5)cc4c32)c(C)n1` [Example 39, 1-(6-Methoxy-2-methylpyridin-3-yl)-3-methyl-8-(5-(trifluoromethyl)pyridin-3-yl)-1H-imidazo[4,5-c]quinolin-2(3H)-one], for which the inhibition at 1 µM in experiment [1] (PC3, 1 μM, 48 hours) is 68.8%; in experiment [2] (A2780, 1 μM, 48 hours), 83.4%.

Consider `CCOc1ccc(-n2c(=O)n(C)c3cnc4ccc(-c5cnc(N)c(C(F)(F)F)c5)cc4c32)cn1` [Example 30, 8-(6-Amino-5-(trifluoromethyl)pyridin-3-yl)-1-(6-ethoxypyridin-3-yl)-3-methyl-1H-imidazo[4,5-c]quinolin-2(3H)-one], for which the inhibition at 1 µM in experiment [1] (PC3, 1 μM, 48 hours) was found to be 71%; in experiment [2] (A2780, 1 μM, 48 hours) it was 94%.

Regarding `CC(C#N)n1c(=O)n(-c2ccc(C#N)nc2)c2c3cc(-c4cnc5ccccc5c4)ccc3ncc21` (stereo not drawn) [Example 52, 5-(3-(1-Cyanoethyl)-2-oxo-8-(quinolin-3-yl)-2,3-dihydro-1H-imidazo[4,5-c]quinolin-1-yl)picolinonitrile], the inhibition at 1 µM in experiment [1] (PC3, 1 μM, 48 hours) was 12%; in experiment [2] (A2780, 1 μM, 48 hours) it was 36%.
